Where a name gives a salt, the structure may show the parent alone. Read-outs that look alike come from different tables or passages of the source.
Experiments:
[1] = test system: TNFalpha; assay: LPS-stimulated cytokine production in human whole blood; format: cell-based
Protocol: Assay: Test compound concentrations were prepared at 10× concentrations and LPS prepared at 1 ug/ml (final conc. of 50 ng/ml LPS) and added in 50 uL volumes to 1.5 mL eppendorf tubes. Heparinized human whole blood was obtained from healthy volunteers and was dispensed into eppendorf tubes or multiwell plates containing compounds and LPS in 0.2-0.4 mL volumes and the tubes incubated at 37 C. In some studies, compound was incubated with blood for up to 30 min prior to addition of LPS. Following a 4 hour incubation, the tubes or plates were centrifuged to remove cells and plasma was withdrawn and frozen at −80 C. Cytokine measurement: IL-1beta and/or TNFalpha were quantified using a standardized ELISA, or similar technology. Concentrations of IL-1beta or TNFalpha were determined from standard curves of the appropriate cytokine and IC50 values for test compound (concentration that inhibited 50% of LPS-stimulated cytokine production) were calculated by linear regression analysis.

[2] = target: T1, Recombinant human p38α (Homo sapiens, UniProt Q16539); assay: Fluorescence anisotropy kinase binding assay (standard or low volume); conditions: for active in the assay (pIC50, p38α binding): 12 nM p38α, 5 nM fluorescent ligand
T1 construct: GST; made in house
T1 sequence (Q16539 whole entry): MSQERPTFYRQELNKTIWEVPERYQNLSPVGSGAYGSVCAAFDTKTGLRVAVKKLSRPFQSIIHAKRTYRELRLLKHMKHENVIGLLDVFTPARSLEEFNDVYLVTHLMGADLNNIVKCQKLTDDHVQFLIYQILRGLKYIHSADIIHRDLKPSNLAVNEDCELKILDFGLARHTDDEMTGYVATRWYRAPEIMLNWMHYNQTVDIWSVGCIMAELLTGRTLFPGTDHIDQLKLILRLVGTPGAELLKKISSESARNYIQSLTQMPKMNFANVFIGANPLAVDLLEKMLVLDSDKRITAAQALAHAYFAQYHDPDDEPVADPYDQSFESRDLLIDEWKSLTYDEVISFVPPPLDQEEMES
Summary of the method: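 Activated GST-tagged recombinant human p38α (pre-activated with MBP-MKK6 DD) at 12 nM final with 5 nM rhodamine green-labelled pyridinylimidazole tracer in pH 7.5 HEPES/CHAPS/DTT/MgCl2 buffer. Test compound 0.28 nM–16.6 μM or 0.02 nM–25 μM final, 3% or 1.7% DMSO; 30–60 min at room temperature. Fluorescence anisotropy read (ex 485/em 535 nm) for Ki.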

[3] = test system: IL-8 production by human neutrophils; assay: TNF-stimulated IL-8 production from human neutrophils; format: cell-based; conditions: Neutrophil, bound, not more than 50% inhibition at 100 nM, read-out: IC50
Protocol: TNF-Stimulated IL-8 Production from Human Neutrophils The effect of test compounds on TNF-stimulated IL8 production by human neutrophils is measured as follows. Neutrophils are prepared from blood obtained from consenting donors, using standard methods. Blood is collected in heparinized syringes and layered over histopaque (30 ml/20 ml). Following centrifugation, the red cell pellet is resuspended in PBS and purified over a dextran gradient. Red blood cells are lysed with water for 40 sec, remaining granulocytes collected by centrifugation and resuspended at 1.5×10̂6 cells/ml. Cells are added (0.5-1 ml) to 48 well plates already containing compound at 1000×final concentration in neat DMSO or 10% DMSO in RPMI1640 with 10% FBS. TNF (final concentration 100 ng/ml) is used as the stimulus. Cells incubated for approximately 20 hrs at 37° C., 5% CO2. Levels of IL-8 in the cell free supernatant are determined by sandwich ELISA, and inhibition relative to a control with DMPO but no compound is calculated.

[4] = LPS-stimulated TNF-alpha, bound, read-out: IC50
[5] = second end given as 'less than', read-out: pIC50, broad range of data upon multiple runs (converted)
[6] = bound, read-out: apparent pIC50 (converted)

SMILES | IC50 [1, 4] [nM] | melting point | further results
Cc1ccc(C(=O)NC(C)C)cc1-c1nc(N2CCOCC2)nc2c1CNC(=O)N2c1c(F)cccc1F [Example 68, 3-[8-(2,6-difluorophenyl)-2-(4-morpholinyl)-7-oxo-5,6,7,8-tetrahydropyrimido[4,5-d]pyrimidin-4-yl]-4-methyl-N-(1-methylethyl)benzamide trifluoroacetate] | > 1000 | – | –
CCN(CC)C(=O)c1ccc(C)c(-c2nc(N3CCN(C)CC3)nc3c2CNC(=O)N3c2c(F)cccc2F)c1 [Example 162, 3-[8-(2,6-difluorophenyl)-2-(4-methyl-1-piperazinyl)-7-oxo-5,6,7,8-tetrahydropyrimido[4,5-d]pyrimidin-4-yl]-N,N-diethyl-4-methylbenzamide] | > 1000 | 201 to 205 °C (dec.) | IC50 [2, 5]: ≥ 1260 nM
Cc1ccc(C(=O)NC(C)C)cc1-c1nc(N2CCCC2)nc2c1CNC(=O)N2c1c(F)cccc1F [Example 67, 3-[8-(2,6-difluorophenyl)-7-oxo-2-(1-pyrrolidinyl)-5,6,7,8-tetrahydropyrimido[4,5-d]pyrimidin-4-yl]-4-methyl-N-(1-methylethyl)benzamide] | > 1000 | – | –
Cc1c(F)cc(C(=O)NC(C)C)cc1-c1nc(NCCN(C)C)nc2c1CNC(=O)N2c1c(F)cccc1F [Example 111(c), 3-(8-(2,6-difluorophenyl)-2-{[2-(dimethylamino)ethyl]amino}-7-oxo-5,6,7,8-tetrahydropyrimido[4,5-d]pyrimidin-4-yl)-5-fluoro-4-methyl-N-(1-methylethyl)benzamide] | – | – | IC50 ([1]; upper end printed as greater than 0.1 uM, read-out: IC50, range of data upon multiple runs): 40 to 100 nM
Cc1ccc(C(=O)NC(C)C)cc1-c1nc(N2CCC(n3c(=O)[nH]c4cc(Cl)ccc43)CC2)nc2c1CNC(=O)N2c1c(F)cccc1F [Example 73, 3-[2-[4-(5-chloro-2-oxo-2,3-dihydro-1H-benzimidazol-1-yl)-1-piperidinyl]-8-(2,6-difluorophenyl)-7-oxo-5,6,7,8-tetrahydropyrimido[4,5-d]pyrimidin-4-yl]-4-methyl-N-(1-methylethyl)benzamide trifluoroacetate] | > 1000 | – | –
Cc1ccc(C(=O)N(C)C)cc1-c1nc(N2CCN(C)CC2)nc2c1CNC(=O)N2c1c(F)cccc1F [149(c), 3-[8-(2,6-difluorophenyl)-2-(4-methyl-1-piperazinyl)-7-oxo-5,6,7,8-tetrahydropyrimido[4,5-d]pyrimidin-4-yl]-N,N,4-trimethylbenzamide] | – | 159 to 162 °C | active in the assay (pIC50, p38α binding) [2]: active; IC50 [3]: > 100 nM
Cc1ccc(C(=O)Nc2cccc(S(N)(=O)=O)c2)cc1-c1nc(NCCN(C)C)nc2c1CNC(=O)N2c1c(F)cccc1F [Example 226, N-[3-(aminosulfonyl)phenyl]-3-(8-(2,6-difluorophenyl)-2-{[2-(dimethylamino)-ethyl]amino}-7-oxo-5,6,7,8-tetrahydropyrimido[4,5-d]pyrimidin-4-yl)-4-methylbenzamide] | > 1000 | – | –
CCc1ccc(C(=O)Nc2ccc(F)c(F)c2)cc1-c1nc(NCCN(C)C)nc2c1CNC(=O)N2c1c(F)cccc1F [Example 143, N-(3,4-difluorophenyl)-3-(8-(2,6-difluorophenyl)-2-{[2-(dimethylamino)-ethyl]amino}-7-oxo-5,6,7,8-tetrahydropyrimido[4,5-d]pyrimidin-4-yl)-4-ethylbenzamide trifluoroacetate] | > 1000 | – | –
Cc1ccc(C(=O)NC(C)C)cc1-c1nc(N2CCCCCC2)nc2c1CNC(=O)N2c1c(F)cccc1F [Example 66, 3-[8-(2,6-difluorophenyl)-2-(hexahydro-1H-azepin-1-yl)-7-oxo-5,6,7,8-tetrahydropyrimido[4,5-d]pyrimidin-4-yl]-4-methyl-N-(1-methylethyl)benzamide] | > 1000 | – | –
CCc1ccc(C(=O)O)cc1-c1nc(NCCN(C)C)nc2c1CNC(=O)N2c1c(F)cccc1F [Example 141, 3-(8-(2,6-difluorophenyl)-2-{[2-(dimethylamino)ethyl]amino}-7-oxo-5,6,7,8-tetrahydropyrimido[4,5-d]pyrimidin-4-yl)-4-ethylbenzoic acid] | > 1000 | – | IC50 [2, 5]: ≥ 1260 nM
CNC(=O)c1ccc(C)c(-c2nc(S(C)(=O)=O)nc3c2CNC(=O)N3c2c(F)cccc2F)c1 [163(b), 3-[8-(2,6-difluorophenyl)-2-(methylsulfonyl)-7-oxo-5,6,7,8-tetrahydropyrimido[4,5-d]pyrimidin-4-yl]-N,4-dimethylbenzamide] | > 1000 | – | active in the assay (pIC50, p38α binding) [2]: active
CCN(CC)C(=O)c1ccc(C)c(-c2nc(N(C)CCCN(C)C)nc3c2CNC(=O)N3c2c(F)cccc2F)c1 [Example 161, 3-{8-(2,6-difluorophenyl)-2-[[3-(dimethylamino)propyl](methyl)amino]-7-oxo-5,6,7,8-tetrahydropyrimido[4,5-d]pyrimidin-4-yl}-N,N-diethyl-4-methylbenzamide] | > 1000 | 106 to 108 °C | active in the assay (pIC50, p38α binding) [2]: active

The next lines start with results.

IC50 [1, 4] [nM] | melting point | SMILES | further results
> 1000 | – | Cc1ccc(C(=O)NC[C@@H](C)O)cc1-c1nc(NCCN(C)C)nc2c1CNC(=O)N2c1c(F)cccc1F [Example 128, 3-(8-(2,6-difluorophenyl)-2-{[2-(dimethylamino)ethyl]amino}-7-oxo-5,6,7,8-tetrahydropyrimido[4,5-d]pyrimidin-4-yl)-N-[(2R)-2-hydroxypropyl]-4-methylbenzamide] | –
> 1000 | – | Cc1ccc(C(=O)NC[C@H](C)O)cc1-c1nc(NCCN(C)C)nc2c1CNC(=O)N2c1c(F)cccc1F [Example 129, 3-(8-(2,6-difluorophenyl)-2-{[2-(dimethylamino)ethyl]amino}-7-oxo-5,6,7,8-tetrahydropyrimido[4,5-d]pyrimidin-4-yl)-N-[(2S)-2-hydroxypropyl]-4-methylbenzamide] | –
– | 114 to 118 °C | Cc1ccc(C(=O)N(C)C)cc1-c1nc(N(C)CCCN(C)C)nc2c1CNC(=O)N2c1c(F)cccc1F [Example 154, 3-{8-(2,6-difluorophenyl)-2-[[3-(dimethylamino)propyl](methyl)amino]-7-oxo-5,6,7,8-tetrahydropyrimido[4,5-d]pyrimidin-4-yl}-N,N,4-trimethylbenzamide] | active in the assay (pIC50, p38α binding) [2]: active; IC50 [3]: > 100 nM
– | 130 to 133 °C | Cc1ccc(C(=O)N(C)C)cc1-c1nc(NCCNC(C)C)nc2c1CNC(=O)N2c1c(F)cccc1F [Example 153, 3-[8-(2,6-difluorophenyl)-2-({2-[(1-methylethyl)amino]ethyl}amino)-7-oxo-5,6,7,8-tetrahydropyrimido[4,5-d]pyrimidin-4-yl]-N,N,4-trimethylbenzamide] | IC50 [2, 6]: > 15800 nM; IC50 [3]: > 100 nM
– | 89 to 91 °C | CCN(CC)C(=O)c1ccc(C)c(-c2nc(NCCNC(C)C)nc3c2CNC(=O)N3c2c(F)cccc2F)c1 [Example 160, 3-[8-(2,6-difluorophenyl)-2-({2-[(1-methylethyl)amino]ethyl}amino)-7-oxo-5,6,7,8-tetrahydropyrimido[4,5-d]pyrimidin-4-yl]-N,N-diethyl-4-methylbenzamide] | IC50 [2, 6]: > 15800 nM; IC50 [3]: > 100 nM
– | 163 to 165 °C | Cc1ccc(C(=O)N(C)C)cc1-c1nc(NC2CCN(C)CC2)nc2c1CNC(=O)N2c1c(F)cccc1F [Example 155, 3-{8-(2,6-difluorophenyl)-2-[(1-methyl-4-piperidinyl)amino]-7-oxo-5,6,7,8-tetrahydropyrimido[4,5-d]-pyrimidin-4-yl}N,N,4-trimethylbenzamide] | active in the assay (pIC50, p38α binding) [2]: active; IC50 [3]: > 100 nM
